The record followed here is ChEMBL document CHEMBL3886759, “Indole-1-carboxamides as kinase inhibitors” (2016).

For assay [1], the target named is Vascular endothelial growth factor receptor 2 (Homo sapiens, UniProt P35968). Put plainly: (§1) Kinase Assay: Biochemical KDR kinase assays were performed in 96 well microtiter plates that were coated overnight with 75 μg/well of poly-Glu-Tyr (4:1) in 10 mM Phosphate Buffered Saline (PBS), pH 7.4. The coated plates were washed with 2 mls per well PBS+0.05% Tween-20 (PBS-T), blocked by incubation with PBS containing 1% BSA, then washed with 2 mls per well PBS-T prior to starting the reaction. Reactions were carried out in 100 μL reaction volumes containing 2.7 μM ATP in kinase buffer (50 mM Hepes buffer pH 7.4, 20 mM MgCl2, 0.1 mM MnCl2 and 0.2 mM Na3VO4). Test compounds were reconstituted in 100% DMSO and added to the reaction to give a final DMSO concentration of 5%. Reactions were initiated by the addition 20 ul per well of kinase buffer containing 200-300 ng purified cytoplasmic domain KDR protein (BPS Bioscience, San Diego, Calif.).

The target of assay [2] is Platelet-derived growth factor receptor beta (Homo sapiens, UniProt P09619). The description is as §1, with “Biochemical PDGFRβ” for “Biochemical KDR”, “75 μg” for “75 μg/well”, “containing 36” for “containing 2.7”, “domain PDGFR-b” for “domain KDR”, “protein (Millipore). Following a 60 minute incubation at 30° C., the reactions were washed 2 mls per well PBS-T.” for “protein (BPS Bioscience, San Diego, Calif.).”.
Chain of Platelet-derived growth factor receptor beta (P09619 whole entry): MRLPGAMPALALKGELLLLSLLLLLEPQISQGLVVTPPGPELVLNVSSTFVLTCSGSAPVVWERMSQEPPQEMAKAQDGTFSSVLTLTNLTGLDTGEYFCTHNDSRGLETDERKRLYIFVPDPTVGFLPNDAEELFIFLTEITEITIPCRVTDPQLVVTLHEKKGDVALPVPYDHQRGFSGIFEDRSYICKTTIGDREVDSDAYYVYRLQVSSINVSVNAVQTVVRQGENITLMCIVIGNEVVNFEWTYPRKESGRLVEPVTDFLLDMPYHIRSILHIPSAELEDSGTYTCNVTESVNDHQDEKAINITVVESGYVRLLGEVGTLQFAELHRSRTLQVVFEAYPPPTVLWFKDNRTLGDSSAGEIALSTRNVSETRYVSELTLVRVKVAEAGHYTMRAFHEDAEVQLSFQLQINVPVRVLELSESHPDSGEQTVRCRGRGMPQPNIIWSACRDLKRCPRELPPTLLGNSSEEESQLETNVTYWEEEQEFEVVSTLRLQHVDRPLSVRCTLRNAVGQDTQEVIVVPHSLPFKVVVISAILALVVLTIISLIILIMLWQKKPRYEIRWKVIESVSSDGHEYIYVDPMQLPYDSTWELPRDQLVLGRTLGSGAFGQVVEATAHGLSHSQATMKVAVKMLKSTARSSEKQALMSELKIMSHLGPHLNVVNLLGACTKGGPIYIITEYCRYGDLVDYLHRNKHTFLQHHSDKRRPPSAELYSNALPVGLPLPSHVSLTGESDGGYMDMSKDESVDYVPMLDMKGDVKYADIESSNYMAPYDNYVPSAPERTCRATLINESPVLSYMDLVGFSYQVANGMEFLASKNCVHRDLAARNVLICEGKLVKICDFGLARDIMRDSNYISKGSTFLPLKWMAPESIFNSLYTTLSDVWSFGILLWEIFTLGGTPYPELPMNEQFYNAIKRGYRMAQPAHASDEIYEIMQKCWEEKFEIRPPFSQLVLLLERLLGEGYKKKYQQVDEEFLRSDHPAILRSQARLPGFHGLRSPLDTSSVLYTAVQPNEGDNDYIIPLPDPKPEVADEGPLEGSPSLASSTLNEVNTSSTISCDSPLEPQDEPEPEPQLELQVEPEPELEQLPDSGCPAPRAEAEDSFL

Chain of Vascular endothelial growth factor receptor 2 (P35968 whole entry): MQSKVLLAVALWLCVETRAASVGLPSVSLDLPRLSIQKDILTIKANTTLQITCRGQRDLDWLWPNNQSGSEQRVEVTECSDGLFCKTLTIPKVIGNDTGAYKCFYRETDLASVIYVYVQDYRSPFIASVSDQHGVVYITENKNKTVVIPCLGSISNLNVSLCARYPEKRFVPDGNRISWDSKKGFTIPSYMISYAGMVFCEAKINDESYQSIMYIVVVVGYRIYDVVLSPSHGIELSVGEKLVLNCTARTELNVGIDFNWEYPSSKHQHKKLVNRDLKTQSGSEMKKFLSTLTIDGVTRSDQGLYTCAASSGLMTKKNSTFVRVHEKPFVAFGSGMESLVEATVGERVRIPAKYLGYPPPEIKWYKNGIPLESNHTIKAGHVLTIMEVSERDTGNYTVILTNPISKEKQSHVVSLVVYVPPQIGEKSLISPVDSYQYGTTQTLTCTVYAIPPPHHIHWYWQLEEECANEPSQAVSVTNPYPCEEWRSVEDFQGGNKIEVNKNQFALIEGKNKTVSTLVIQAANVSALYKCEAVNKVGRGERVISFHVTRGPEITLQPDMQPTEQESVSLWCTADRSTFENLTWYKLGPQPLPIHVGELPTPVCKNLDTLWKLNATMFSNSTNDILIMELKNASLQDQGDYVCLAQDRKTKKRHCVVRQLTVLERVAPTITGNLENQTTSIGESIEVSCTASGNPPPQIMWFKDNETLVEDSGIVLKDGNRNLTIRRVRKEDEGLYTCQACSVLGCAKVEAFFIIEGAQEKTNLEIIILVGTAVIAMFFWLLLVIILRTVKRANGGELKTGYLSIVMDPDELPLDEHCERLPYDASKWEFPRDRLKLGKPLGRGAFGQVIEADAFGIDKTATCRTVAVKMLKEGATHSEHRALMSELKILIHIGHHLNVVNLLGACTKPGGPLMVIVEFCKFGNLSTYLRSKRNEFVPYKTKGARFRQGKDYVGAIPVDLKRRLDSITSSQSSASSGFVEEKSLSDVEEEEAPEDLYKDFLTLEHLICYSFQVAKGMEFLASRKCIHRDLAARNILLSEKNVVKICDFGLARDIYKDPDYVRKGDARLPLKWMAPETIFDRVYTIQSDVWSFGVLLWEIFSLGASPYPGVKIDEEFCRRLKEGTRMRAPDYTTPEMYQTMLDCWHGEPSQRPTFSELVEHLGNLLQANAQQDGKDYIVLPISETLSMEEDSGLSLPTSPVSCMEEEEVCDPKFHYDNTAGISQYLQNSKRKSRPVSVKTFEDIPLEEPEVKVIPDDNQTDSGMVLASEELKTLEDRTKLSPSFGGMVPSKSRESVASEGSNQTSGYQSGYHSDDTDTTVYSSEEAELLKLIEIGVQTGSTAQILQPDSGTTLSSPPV

In the case of `CCc1cccc(NC(=O)Nc2ccc(-c3cc4ccccc4n3C(N)=O)cc2)c1`, the IC50 came to 3 nM in assay [1] and 10 nM in assay [2].
